We go through two molecules from the NIST ThermoML archive (doi:10.1016/j.jct.2009.06.022).

The nature of data set [1]: Molar enthalpy of transition or fusion. To be noted: Crystal; DSC.
The conditions of data set [2]: Crystal; DTA.
The nature of data set [3]: molar enthalpy of vaporization or sublimation. The note with it: 298.15 K; Crystal; Static calorimetry.

Numbers after ± are expanded uncertainties.

With `O=C1CC(c2ccccc2)Oc2ccccc21` (stereo unspecified) [2,3-dihydroflavone], the “Molar enthalpy of transition or fusion” value in data set [1] was determined as 5.03 ± 0.139 kcal/mol. The Normal melting temperature in data set [2] came to 76.34 ± 0.44 °C. For the same molecule, in data set [3], the molar enthalpy came out at 25.6 ± 1.1 kcal/mol.
Taken in the same sequence, the figures for `O=c1cc(-c2ccccc2)oc2ccccc12` [flavone] were 4.86 ± 0.122 kcal/mol, 96.74 ± 0.44 °C and 25.9 ± 0.813 kcal/mol.
